In data set [1] the target is hPD-1/hPD-L1 interaction (CHO-K1-hPD-1 cells, hPD-L1 protein) (Homo sapiens, UniProt Q9NZQ7). Nature of the data set: Peptide blocking assay (flow cytometry). In kind it is cell-based. The conditions noted are these: CHO-K1-hPD-1 cells 3 × 10^5 per sample, 50 ng hPD-L1, peptide + protein 30 min, + cells 30 min, on ice, 200 μM to 1.6 μM, means ± SEMs from three independent biological triplicates, read-out: IC50, blocking of PD-1/PD-L1 interaction. The procedure:
The interaction between PD-1 and PD-L1 plays a pivotal role in suppressing T-cell function, and disrupting this interaction has emerged as a viable therapeutic strategy in cancer treatment. Thus, we investigated the inhibitory potential of D-glu-^LPPA-1 and D-gal-^LPPA-1 on the PD-1/PD-L1 interaction. To conduct the experiment, CHO-K1-hPD-1 cells were harvested at a density of 3 × 10^5 cells per sample. Peptides were solubilized to a concentration of 200 μM and serially diluted before coincubation with 50 ng of the hPD-L1 protein for 30 min. The protein–peptide mixture was introduced into CHO-K1-hPD-1 cells, which were then coincubated for an additional 30 min. The anti-Fc PE antibody was then added and incubated for 30 min. Flow cytometry was used to evaluate the efficacy of the peptides in blocking the hPD-1/hPD-L1 interaction.
For subsequent multi-concentration blocking assays, peptides were prepared in concentration gradients spanning 200 μM, 100 μM, 50 μM, 25 μM, 12.5 μM, and 6.25 μM. Peptides at different concentrations were incubated with hPD-L1 (mPD-L1) protein (50 ng) on ice for 30 min. Subsequently, the mixture was added to CHO-K1-hPD-1 or CHO-K1-mPD-1 cells and coincubated on ice for 30 min. […] The ability of the peptide to block the PD-1/PD-L1 interaction was assessed using flow cytometry.

In data set [2] the test system is heart, liver, spleen, lung, kidney of MC38 tumor-bearing mice. Briefly: H&E staining of major organs. The settings on record: 1 and 3 mg/kg i.p., vs. normal saline control. In kind it is in vivo, mouse. As for the experimental part: Tumor tissue and heart, liver, spleen, lung, and kidney tissues were isolated from MC38 tumor-bearing mice and fixed in 4.0% paraformaldehyde. The samples were subsequently embedded in paraffin and subjected to hematoxylin and eosin staining. The results were analyzed using ImageJ1 software (NIH, Bethesda, MD, USA).

Data set [3] can be described thus: Body weight of MC38 tumor-bearing mice. In kind it is in vivo, mouse. The settings on record: 1 and 3 mg/kg i.p. once daily for two weeks. The procedure: Animal experiments were approved by the Zhengzhou University Ethics Committee. MC38 cells (1 × 10^6) were subcutaneously inoculated into C57BL/N mice. The MC38 tumor-bearing mice were randomly allocated to three groupsn (n = 5 per group): a control group (NS, normal saline containing 1% DMSO); a D-gal-^LPPA-1 peptide group (1 mg/kg); and a D-gal-^LPPA-1 peptide group (3 mg/kg). Daily intraperitoneal injections of the peptide were initiated when the tumor volume reached 50–90 mm^3. The tumor dimensions, including length, width, and height, were measured, and tumor volume was calculated using the following formula:V = 1/2 × A (length) × B (width) × C (height).

In data set [4] the target is mouse PD-L1 (mPD-L1) (Mus musculus, UniProt Q9EP73). Briefly: MST binding assay, mPD-L1. The conditions noted are these: microscale thermophoresis (MST); mPD-L1-His 800 nM, RED-NHS dye, PBST; peptide 400 μM to 0.012 μM; triplicate, mean ± SEM; read-out: dissociation constant (KD), mPD-L1. As for the experimental part:
The concentrations of hPD-L1-His and mPD-L1-His proteins were adjusted to 200 nM and 800 nM, respectively, utilizing PBST as the diluent. Simultaneously, the concentration of RED-NHS676 dye was diluted to 100 nM in PBST. Subsequently, protein and dye were subjected to co-incubation at a volumetric ratio of 1:1 for a duration of 30 min, thereby facilitating the generation of labeled proteins. To establish peptide gradients, a progressive dilution was initiated from an initial concentration of 400 μM, eventually reaching 0.012 μM. Following this preparation, a homogenous amalgamation comprising 5 μL of labeled protein and 5 μL of small molecule diluent was extracted for further experimentation. Subsequently, the samples were transferred to standard capillary tubes and analyzed by an MST instrument (Nano Temper, Monolith NT.115, München, Germany).
Background: In MST a laser heats a spot of the sample, and binding alters the fluorescence response.

The target in data set [5] is T1, hPD-L1-Fc (human, UniProt Q9NZQ7 19-238).
T1 construct: human PD-L1 (hPD-L1), recombinant protein fused to Fc; also called hPD-L1 protein
T1 sequence (Q9NZQ7 19-238): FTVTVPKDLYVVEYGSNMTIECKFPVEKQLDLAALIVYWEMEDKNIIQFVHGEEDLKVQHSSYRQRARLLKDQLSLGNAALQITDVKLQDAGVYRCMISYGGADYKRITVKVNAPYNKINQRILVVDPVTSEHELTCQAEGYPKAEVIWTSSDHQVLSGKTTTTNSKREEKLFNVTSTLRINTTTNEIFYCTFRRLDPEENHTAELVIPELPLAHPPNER
Nature of the data set: flow cytometry on cells; blocking assay: peptide in serial dilution from 200 μM pre-incubated with 50 ng hPD-L1-Fc on ice for 30 min, mixture added to CHO-K1-hPD-1 cells (3 x 10^5 per sample) for 30 min, detected with anti-Fc PE antibody. The conditions noted are these: both partners purified. For orientation: A flow cytometer gives signals particle by particle.

Data set [6] deals with hPD-L1-His (human, UniProt Q9NZQ7 19-290, labelled with RED-NHS676 dye). Briefly: MST; His-tagged PD-L1 (hPD-L1 200 nM, mPD-L1 800 nM) labelled 1:1 with 100 nM RED-NHS676 dye in PBST for 30 min; peptide diluted from 400 μM to 0.012 μM; standard capillaries, Monolith NT.115. The conditions noted are these: both partners purified.
hPD-L1-His, sequence (Q9NZQ7 19-290): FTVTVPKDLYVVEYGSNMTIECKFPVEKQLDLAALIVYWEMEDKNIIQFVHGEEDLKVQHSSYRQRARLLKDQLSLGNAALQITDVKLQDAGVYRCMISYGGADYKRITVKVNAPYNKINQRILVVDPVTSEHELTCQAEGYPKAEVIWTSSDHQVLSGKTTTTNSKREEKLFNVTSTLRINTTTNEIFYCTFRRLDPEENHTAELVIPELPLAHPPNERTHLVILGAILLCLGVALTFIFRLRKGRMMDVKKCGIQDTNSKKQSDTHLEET
In data set [7] the target is mPD-L1-His (mouse, UniProt Q9EP73 19-290, labelled with RED-NHS676 dye). The description is as above. The settings on record: both partners purified.
mPD-L1-His, sequence (Q9EP73 19-290): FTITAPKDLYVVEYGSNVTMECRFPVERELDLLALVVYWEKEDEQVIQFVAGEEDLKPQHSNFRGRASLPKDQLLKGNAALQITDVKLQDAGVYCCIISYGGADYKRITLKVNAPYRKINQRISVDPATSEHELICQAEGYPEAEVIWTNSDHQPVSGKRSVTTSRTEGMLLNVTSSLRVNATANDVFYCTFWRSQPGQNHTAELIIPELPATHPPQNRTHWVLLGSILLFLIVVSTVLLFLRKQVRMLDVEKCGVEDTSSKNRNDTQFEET

Residues, ends and D or L forms follow the SMILES beside them. No end group written: not given here. *: point of attachment. X1 = NC(=O)C[C@H](N=C[C@H](O)[C@@H](O)[C@@H](O)[C@H](O)CO)C(=O)*; X2 = NC(=O)C[C@H](N=C[C@H](O)[C@@H](O)[C@H](O)[C@H](O)CO)C(=O)*

As usually defined, the Kd is the equilibrium constant for the complex coming apart.

hPD-1/hPD-L1 interaction (CHO-K1-hPD-1 cells, hPD-L1 protein), sequence (Q9NZQ7 19-238 limits assumed): as the sequence (Q9NZQ7 19-238) above
mouse PD-L1 (mPD-L1), sequence (Q9EP73 19-290): as the sequence (Q9EP73 19-290) above

For the molecule `C[C@@H](O)[C@H](NC(=O)[C@@H]1CCCN1C(=O)[C@H](CCCCN)NC(=O)[C@H](CO)NC(=O)[C@H](Cc1ccc(O)cc1)NC(=O)[C@H](CC(N)=O)N=C[C@H](O)[C@@H](O)[C@H](O)[C@H](O)CO)C(=O)N[C@@H](CC(=O)O)C(=O)N[C@@H](CCCNC(=N)N)C(=O)N[C@@H](CCC(N)=O)C(=O)N[C@@H](Cc1ccc(O)cc1)C(=O)N[C@@H](Cc1c[nH]cn1)C(=O)N[C@@H](Cc1ccccc1)C(=O)O` [D-glu-^LPPA-1] (X2-YSKPTDRQYHF-OH), the IC50 in data set [1] was 75.5 ± 20.3 µM.

Turning to `C[C@@H](O)[C@H](NC(=O)[C@@H]1CCCN1C(=O)[C@H](CCCCN)NC(=O)[C@H](CO)NC(=O)[C@H](Cc1ccc(O)cc1)NC(=O)[C@H](CC(N)=O)N=C[C@H](O)[C@@H](O)[C@@H](O)[C@H](O)CO)C(=O)N[C@@H](CC(=O)O)C(=O)N[C@@H](CCCNC(=N)N)C(=O)N[C@@H](CCC(N)=O)C(=O)N[C@@H](Cc1ccc(O)cc1)C(=O)N[C@@H](Cc1c[nH]cn1)C(=O)N[C@@H](Cc1ccccc1)C(=O)O` [D-gal-^LPPA-1] (X1-YSKPTDRQYHF-OH), the “organ toxicity (H&E staining)” value in data set [2] was “no apparent toxicity observed”. For the same molecule, the body weight entry in data set [3] was “no significant changes in body weight”. In addition, in data set [4], the Kd was 0.015 ± 0.006 µM.

B1: D-glu-^LPPA-1 (peptide)
peptide: N(D‑glucose)YSKPTDRQYHF
notes: L-type peptide ^LPPA-1, L-amino-acid analogue of the PD-L1-targeting D-peptide ^DPPA-1; printed in three-letter code; source: synthetic peptide (Fmoc solid-phase synthesis, purified by reverse-phase HPLC)
On to B1, for which the IC50 in data set [5] was determined as 75 µM.

B2: D-gal-^LPPA-1 (peptide)
peptide: N(D‑galactose)YSKPTDRQYHF
notes: as for B1
On to B2, for which the Kd in data set [6] is 0.047 µM; in data set [7], 0.0149 µM. The IC50 in data set [5] amounted to 101 µM.
